Test results: publication PMC4363092 (Journal of medicinal chemistry, 2014)
Several values for one entry are separate records, joined by “and”; a condition that tells them apart may be missing. Equal entries are not always repeated. Entries after “also recorded” stand apart in the source; their conditions may differ. Where two headings read alike, the source gives them in different places.

How the values were obtained:
P2Y11 receptor [1] = details: cited from earlier work; for potency relative to ATP at the P2Y11 receptor: higher potency than ATP
NPP1 = details: cited from earlier work; for Ki: read-out: Ki, NPP1
human NTPDase1,2,3,8 = assay: Inhibition of NTPDase activity, text statements pooled over NTPDase1,2,3,8; type: biochemical; details: analogue 100 μM, pooled over four NTPDases
P2Y11 receptor [2] = molecular target: T1, P2Y11 receptor (Homo sapiens, UniProt Q96G91); assay: [Ca2+]i elevation in 1321N1 astrocytoma cells expressing GFP-P2Y11 receptor; type: cell-based; details: for potency relative to ATP at the P2Y11 receptor: more potent than ATP
T1 sequence (Q96G91 1-374): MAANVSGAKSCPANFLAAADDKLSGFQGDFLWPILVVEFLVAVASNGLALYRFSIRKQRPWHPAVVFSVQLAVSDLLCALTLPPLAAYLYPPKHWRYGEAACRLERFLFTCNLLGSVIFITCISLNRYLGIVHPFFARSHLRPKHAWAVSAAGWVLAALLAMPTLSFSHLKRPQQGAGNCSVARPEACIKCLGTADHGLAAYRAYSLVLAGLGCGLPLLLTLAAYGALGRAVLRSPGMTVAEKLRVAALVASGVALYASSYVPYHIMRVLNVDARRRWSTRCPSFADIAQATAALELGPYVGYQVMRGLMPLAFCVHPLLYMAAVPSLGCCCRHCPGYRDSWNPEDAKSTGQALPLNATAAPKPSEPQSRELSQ

human NTPDase1 = molecular target: T2, human NTPDase1 (Homo sapiens, UniProt P49961); details: analogue 100 μM as substrate; activity with 100 μM ATP set as 100%
T2 sequence (P49961 1-510): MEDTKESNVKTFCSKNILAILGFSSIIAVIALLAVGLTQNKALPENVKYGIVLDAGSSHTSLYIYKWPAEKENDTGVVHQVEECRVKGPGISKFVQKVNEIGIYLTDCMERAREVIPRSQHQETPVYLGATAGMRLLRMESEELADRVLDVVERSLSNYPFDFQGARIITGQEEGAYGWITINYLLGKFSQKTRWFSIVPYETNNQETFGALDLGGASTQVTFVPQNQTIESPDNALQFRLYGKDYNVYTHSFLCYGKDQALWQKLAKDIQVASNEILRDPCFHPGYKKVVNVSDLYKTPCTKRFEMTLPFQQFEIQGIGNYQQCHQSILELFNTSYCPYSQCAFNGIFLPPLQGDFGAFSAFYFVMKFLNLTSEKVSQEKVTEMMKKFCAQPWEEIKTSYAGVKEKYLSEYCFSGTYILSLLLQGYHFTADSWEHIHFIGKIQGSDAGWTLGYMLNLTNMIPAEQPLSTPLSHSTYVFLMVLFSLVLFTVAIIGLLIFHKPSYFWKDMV

human NTPDase2 = molecular target: T3, human NTPDase2 (Homo sapiens, UniProt Q9Y5L3); details: analogue 100 μM as substrate; activity with 100 μM ATP set as 100%
T3 sequence (Q9Y5L3 1-495): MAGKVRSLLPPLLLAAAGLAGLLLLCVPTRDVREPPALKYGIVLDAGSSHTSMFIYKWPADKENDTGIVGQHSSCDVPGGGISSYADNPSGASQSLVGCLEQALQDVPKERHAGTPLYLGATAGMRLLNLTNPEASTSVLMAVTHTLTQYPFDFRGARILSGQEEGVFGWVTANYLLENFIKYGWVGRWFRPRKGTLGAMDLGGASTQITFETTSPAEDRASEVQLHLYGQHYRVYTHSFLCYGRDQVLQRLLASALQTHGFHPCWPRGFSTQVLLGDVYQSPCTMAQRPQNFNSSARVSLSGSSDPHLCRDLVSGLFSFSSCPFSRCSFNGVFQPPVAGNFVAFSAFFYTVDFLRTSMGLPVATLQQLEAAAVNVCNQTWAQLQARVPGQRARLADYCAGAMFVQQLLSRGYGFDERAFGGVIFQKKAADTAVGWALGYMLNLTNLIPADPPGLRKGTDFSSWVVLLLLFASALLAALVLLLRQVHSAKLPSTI

human NTPDase3 = molecular target: T4, human NTPDase3 (Homo sapiens, UniProt O75355); details: analogue 100 μM as substrate; activity with 100 μM ATP set as 100%
T4 sequence (O75355 1-529): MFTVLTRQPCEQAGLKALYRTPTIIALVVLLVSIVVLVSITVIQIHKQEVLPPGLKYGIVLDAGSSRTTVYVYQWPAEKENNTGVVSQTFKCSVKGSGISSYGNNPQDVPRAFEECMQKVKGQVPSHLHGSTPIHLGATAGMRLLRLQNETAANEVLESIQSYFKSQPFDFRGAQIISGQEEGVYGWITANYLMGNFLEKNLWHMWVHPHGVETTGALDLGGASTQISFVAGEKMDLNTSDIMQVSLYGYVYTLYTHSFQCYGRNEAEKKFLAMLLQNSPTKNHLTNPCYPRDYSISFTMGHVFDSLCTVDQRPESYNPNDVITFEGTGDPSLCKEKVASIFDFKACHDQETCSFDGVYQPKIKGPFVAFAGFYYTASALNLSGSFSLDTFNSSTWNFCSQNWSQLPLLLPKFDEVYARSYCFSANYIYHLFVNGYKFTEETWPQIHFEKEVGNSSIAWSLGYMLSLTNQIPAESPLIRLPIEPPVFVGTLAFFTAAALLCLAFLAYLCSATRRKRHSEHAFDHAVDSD

human NTPDase8 = molecular target: T5, human NTPDase8 (Homo sapiens, UniProt Q5MY95); details: analogue 100 μM as substrate; activity with 100 μM ATP set as 100%
T5 sequence (Q5MY95 1-495): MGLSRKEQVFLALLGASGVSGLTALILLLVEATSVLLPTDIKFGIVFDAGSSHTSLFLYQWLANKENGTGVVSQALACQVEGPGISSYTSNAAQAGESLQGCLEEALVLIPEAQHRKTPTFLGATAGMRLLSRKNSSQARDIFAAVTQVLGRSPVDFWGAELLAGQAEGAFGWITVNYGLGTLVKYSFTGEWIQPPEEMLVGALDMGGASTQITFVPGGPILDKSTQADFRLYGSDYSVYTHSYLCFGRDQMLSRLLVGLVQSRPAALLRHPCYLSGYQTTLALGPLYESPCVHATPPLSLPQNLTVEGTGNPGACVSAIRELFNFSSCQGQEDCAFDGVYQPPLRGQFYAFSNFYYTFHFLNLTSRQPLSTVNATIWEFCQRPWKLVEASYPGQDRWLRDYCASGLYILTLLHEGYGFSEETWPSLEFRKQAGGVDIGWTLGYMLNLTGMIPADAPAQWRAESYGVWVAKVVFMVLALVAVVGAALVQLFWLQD

human NPP1 = molecular target: T6, human NPP1 (Homo sapiens, UniProt P22413); assay: Inhibition of NPP1, pNP-TMP as substrate; type: biochemical; details: Dixon and Cornish–Bowden methods
T6 sequence (P22413 1-925): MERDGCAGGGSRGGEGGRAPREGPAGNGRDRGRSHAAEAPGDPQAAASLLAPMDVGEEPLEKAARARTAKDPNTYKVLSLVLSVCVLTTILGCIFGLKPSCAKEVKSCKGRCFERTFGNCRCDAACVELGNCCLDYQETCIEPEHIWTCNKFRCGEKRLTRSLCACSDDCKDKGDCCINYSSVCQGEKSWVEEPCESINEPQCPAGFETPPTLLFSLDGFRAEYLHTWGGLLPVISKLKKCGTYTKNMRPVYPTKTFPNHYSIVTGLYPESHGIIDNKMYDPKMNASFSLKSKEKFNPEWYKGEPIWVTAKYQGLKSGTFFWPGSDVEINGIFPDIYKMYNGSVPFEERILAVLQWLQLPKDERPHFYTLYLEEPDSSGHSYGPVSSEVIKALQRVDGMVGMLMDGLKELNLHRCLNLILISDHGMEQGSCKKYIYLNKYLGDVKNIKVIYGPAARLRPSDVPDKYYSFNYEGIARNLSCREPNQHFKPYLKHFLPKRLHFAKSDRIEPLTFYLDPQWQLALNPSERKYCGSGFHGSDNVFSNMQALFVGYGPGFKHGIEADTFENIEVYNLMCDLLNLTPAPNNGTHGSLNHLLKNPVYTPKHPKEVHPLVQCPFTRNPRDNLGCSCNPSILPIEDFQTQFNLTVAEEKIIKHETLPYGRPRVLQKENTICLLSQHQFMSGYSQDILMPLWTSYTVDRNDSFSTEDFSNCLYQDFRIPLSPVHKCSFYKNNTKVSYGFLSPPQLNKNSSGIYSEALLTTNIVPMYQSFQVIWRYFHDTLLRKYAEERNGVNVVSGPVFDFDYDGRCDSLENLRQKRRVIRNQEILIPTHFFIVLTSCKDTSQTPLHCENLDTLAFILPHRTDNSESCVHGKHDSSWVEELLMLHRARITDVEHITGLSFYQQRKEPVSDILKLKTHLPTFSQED

In the case of `CCCSc1nc(N)c2ncn([C@@H]3O[C@H](COP(O)(=S)OP(=O)(O)C(Cl)(Cl)P(=O)(O)O)[C@@H](O)[C@H]3O)c2n1` (single isomer, unassigned; isomer a) [2-(propylthio)adenosine 5′-α-thio-β,γ-(dichloromethylene)-triphosphate, isomer A, 2-(propylthio)adenosine 5′-α-thio-β,γ-(dichloromethylene)-triphosphate], the “potency relative to ATP at the P2Y11 receptor” value (“potency relative to ATP” for short) (P2Y11 receptor [1]) is listed as ~ 3 fold.
For `BP(=O)(OC[C@H]1O[C@@H](n2cnc3c(N)ncnc32)[C@H](O)[C@@H]1O)OP(=O)(O)CP(=O)(O)O` (single isomer, unassigned; isomer a) [adenosine 5′-α-borano-β,γ-methylenetriphosphate (isomer A), adenosine 5′-α-borano-β,γ-methylenetriphosphate], the Ki (NPP1; ref 22 (b65 prints ref 44)) is listed as 0.5 µM.
In the case of `CCCSc1nc(N)c2ncn([C@@H]3O[C@H](COP(O)(=S)OP(=O)(O)C(Cl)(Cl)P(=O)(O)O)[C@@H](O)[C@H]3O)c2n1` (single isomer, unassigned; isomer b) [2-(propylthio)adenosine 5′-α-thio-β,γ-(dichloromethylene)-triphosphate, isomer B, 2-(propylthio)adenosine 5′-α-thio-β,γ-(dichloromethylene)-triphosphate], the “potency relative to ATP” value (P2Y11 receptor [1]) is given as ~ 4 fold.
For `Nc1ncnc2c1ncn2[C@@H]1O[C@H](CO[P@](O)(=S)OP(=O)(O)CP(=O)(O)O)[C@@H](O)[C@H]1O` [1a], the “inhibition of ATP hydrolysis by NTPDase1,2,3,8” value (“inhibition of ATP hydrolysis” for short) (human NTPDase1,2,3,8) was “did not interfere”, the “EC50 ± SEM (μM), [Ca^2+]i elevation, P2Y11” value (P2Y11 receptor [2]; 1321N1 cells, nr = no response up to 10 μM) was “not agonists; also recorded: inactive; also recorded: not active, nr ^c” and the “relative activity (%) ± SD of ATP hydrolysis, NTPDase1” value (“relative activity (%) ± SD … NTPDase1” for short) (human NTPDase1) was 4.4 ± 0.2%. For the same compound, the “relative activity (%) ± SD of ATP hydrolysis, NTPDase2” value (from here on “relative activity (%) ± SD … NTPDase2”) (human NTPDase2) was 4.7 ± 1.7%, the “relative activity (%) ± SD of ATP hydrolysis, NTPDase3” value (from here on “relative activity (%) ± SD … NTPDase3”) (human NTPDase3) was 4.2 ± 0.2% and the “relative activity (%) ± SD of ATP hydrolysis, NTPDase8” value (from here on “relative activity (%) ± SD … NTPDase8”) (human NTPDase8) was 4.4 ± 0.2%.
For `Nc1ncnc2c1ncn2[C@@H]1O[C@H](CO[P@@](O)(=S)OP(=O)(O)CP(=O)(O)O)[C@@H](O)[C@H]1O` [1b], the “inhibition of ATP hydrolysis” value (human NTPDase1,2,3,8) was “did not interfere”, the type of inhibition (human NPP1) was “mixed-type inhibition, predominantly competitive” and the “potency relative to ATP” value (P2Y11 receptor [2]) was 7 fold and ~ 7 fold. For the same compound, the “relative activity (%) ± SD … NTPDase1” value (human NTPDase1) was 5.4 ± 0.2%, the “relative activity (%) ± SD … NTPDase2” value (human NTPDase2) was 5.5 ± 0.3% and the “relative activity (%) ± SD … NTPDase3” value (human NTPDase3) was 4.8 ± 0.2%. The “relative activity (%) ± SD … NTPDase8” value (human NTPDase8) was 5.3 ± 0.2%.
With `Nc1ncnc2c1ncn2[C@@H]1O[C@H](CO[P@@](O)(=S)OP(=O)(O)C(Cl)(Cl)P(=O)(O)O)[C@@H](O)[C@H]1O` [2b] the “inhibition of ATP hydrolysis” value (human NTPDase1,2,3,8) was “did not interfere”, the type of inhibition (human NPP1) was “mixed-type inhibition, predominantly competitive” and the EC50 (P2Y11 receptor [2]) was 3 ± 1.46 µM. The “potency relative to ATP” value (P2Y11 receptor [2]) was 2 fold and ~ 2 fold, the “relative activity (%) ± SD … NTPDase1” value (human NTPDase1) was 5.4 ± 0.2% and the “relative activity (%) ± SD … NTPDase2” value (human NTPDase2) was 5.5 ± 0.2%. The “relative activity (%) ± SD … NTPDase3” value (human NTPDase3) was 5.4 ± 0.2% and the “relative activity (%) ± SD … NTPDase8” value (human NTPDase8) was 5.3 ± 0.2%.
In the case of `Nc1ncnc2c1ncn2[C@@H]1O[C@H](CO[P@](=O)(O)O[P@](=O)(O)O[P@@](=O)(O)S)[C@@H](O)[C@H]1O` [ATP-γ-S], the “pEC50, P2Y11 receptor” value (P2Y11 receptor [1]) is listed as 5.52.
In the case of `Nc1ncnc2c1ncn2[C@H]1C[C@H](O)[C@@H](COP(=O)(O)CP(=O)(O)OP(=O)(O)OP(=O)(O)CP(=O)(O)OC[C@H]2O[C@@H](n3cnc4c(N)ncnc43)C[C@@H]2O)O1` [bis(2′-deoxyadenosine) α,β:δ,ε-dimethylenepentaphosphonate], the IC50 (NPP1; read-out: IC50, NPP1) is given as 13 µM and the Ki (NPP1) is given as 9 µM.
For `Nc1ncnc2c1nc(S)n2[C@@H]1O[C@H](COP(=O)(O)OP(=O)(O)OP(=O)(O)O)[C@@H](O)[C@H]1O` [compound 4], the “relative activity (%) ± SD … NTPDase1” value (human NTPDase1) was 43 ± 2%, the “relative activity (%) ± SD … NTPDase2” value (human NTPDase2) was 73 ± 2% and the “relative activity (%) ± SD … NTPDase3” value (human NTPDase3) was 51 ± 3%. The “relative activity (%) ± SD … NTPDase8” value (human NTPDase8) was 73 ± 1%.
